Measured values published in PMC12475274, “Harnessing indole scaffolds to identify small-molecule IRE1α inhibitors modulating XBP1 mRNA splicing” (Nature Communications, 2025).
“And” between values parts separate entries of the source, which are not always exact repeats. Equal values may be shown once. Read-outs that look alike come from different tables or passages of the source. Values belong to the molecule of their own block, whether it stands above or below them.

Tests used:
[1] = biological target: T1, dephosphorylated IRE1α (547–977) (Homo sapiens, UniProt O75460); assay: FRET-based IRE1α RNase activity assay, dephosphorylated IRE1α; type: biochemical; details: for inhibition at 50 µM: read-out: IRE1α inhibition%
T1 construct: Human IRE1α kinase and RNase domain (residues 547–977) was subcloned into pLIB plasmid; His tag (with TEV cleavage site) (N, cleaved yes); made in house; host or cells: Sf9 insect cells, baculovirus (Bac-to-Bac)
T1 sequence (O75460 547-977): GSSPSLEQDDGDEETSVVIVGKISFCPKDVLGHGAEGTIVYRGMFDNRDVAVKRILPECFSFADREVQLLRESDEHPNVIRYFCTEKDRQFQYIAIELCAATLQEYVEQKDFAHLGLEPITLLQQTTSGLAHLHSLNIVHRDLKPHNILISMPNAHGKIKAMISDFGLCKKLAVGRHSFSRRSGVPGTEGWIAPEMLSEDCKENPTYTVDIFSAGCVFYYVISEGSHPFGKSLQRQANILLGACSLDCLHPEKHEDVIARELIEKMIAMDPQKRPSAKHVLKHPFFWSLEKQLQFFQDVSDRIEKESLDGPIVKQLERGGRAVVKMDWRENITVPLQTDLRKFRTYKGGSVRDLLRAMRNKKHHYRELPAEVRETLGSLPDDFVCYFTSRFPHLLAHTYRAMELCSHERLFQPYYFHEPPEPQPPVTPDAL
Description: (§1) Human IRE1α kinase and RNase domain (residues 547–977) was subcloned into pLIB plasmid with a His tag and TEV cleavage site, and expressed using Bac-to-Bac expression system. The primers used are listed in Supplementary Table S3. The protein purification was performed following established procedures. Briefly, Sf9 cells were infected with baculovirus and incubated at 27 °C 110 rpm for 72 h. The cells were collected by centrifugation at 4000 × g for 15 min and the cell pellet was resuspended in lysis buffer (50 mM HEPES pH 7.5, 300 mM NaCl, 10% glycerol, 1 mM MgCl2, 1 mM TCEP, 5 mM imidazole), then supplemented with 1:10,000 benzonase (Sigma, E1014), 1 tablet/25 mL […]™ Protease Inhibitor Cocktail tablets (Sigma, S8830) and 1 mM PMSF before lysed by sonication at 4 °C. […] The protein elution was incubated with TEV protease to remove His tag at 4 °C overnight. Then the sample was diluted 1:6 in buffer (50 mM HEPES pH 7.5, 1 mM TCEP, 5% glycerol) and loaded onto a 5 mL pre-packaged Q HP anion exchange column (Cytiva, HiTrap Q HP) pre-equilibrated with QA buffer (50 mM HEPES pH 7.5, 50 mM NaCl, 1 mM TCEP, 5% glycerol). The unphosphorylated and phosphorylated protein was separated by eluting the protein with a very shallow gradient with 0-30% buffer QB (50 mM HEPES pH 7.5, 1 M NaCl, 1 mM TCEP, 5% glycerol) over 80 CV. Different peaks were collected separately and verified by LC-MS. The fully phosphorylated fraction was collected and further purified by size exclusion chromatography (Cytiva, HiLoad 16/600 Superdex 200 pg,) with SEC buffer (25 mM HEPES pH 7.5, 250 mM NaCl, 1 mM TCEP, 10% glycerol) and fractioned as monomeric peak. The rest protein fraction from the Q HP anion exchange column was incubated with Lambda protein phosphatase (New England BioLabs, P0753S) overnight at 4 °C, the dephosphorylation was confirmed by LC-MS. The unphosphorylated protein was further purified by size exclusion chromatography with the SEC buffer described above. The purified phosphorylated (p-IRE1α) and dephosphorylated (IRE1α) protein aliquots were stored at −80 °C for future usage.
The dual-labeled RNA substrate with a FAM at 5’ and the BHQ-1 at 3’ containing the XBP1 sequence (5′FAM-[…]-3′BHQ1) was purchased from Integrated DNA Technologies (IDT). The FRET-based IRE1α RNase activity assay was carried out in reaction buffer containing 20 mM HEPES pH 7.5, 50 mM KOAc, 1 mM MgOAc2, 1 mM DTT, 0.05% v/v TritonX-100, at a total reaction volume of 20 μL in a 384-well black plate (4514, Corning). For unphosphorylated IRE1α (IRE1α), a final concentration of 40 nM IRE1α protein and 100 nM RNA substrate was used. For phosphorylated IRE1 (p-IRE1α), a final concentration of 4 nM p-IRE1α protein and 200 nM RNA substrate was used. The indicated compound and IRE1α protein were incubated for 30 min at room temperature before the substrate was added to the reaction. The plate was then kinetically read over one hour at room temperature using a TECAN Spark plate reader. The measurement was carried out using the fluorescence top reading mode at the excitation wavelength of 485 nm and the emission wavelength of 535 nm with a 10 nm excitation and emission bandwidth. The linear part of the reaction curve was adopted and fitted with sample linear regression to obtain the slope, and the slope was adopted to reflect the reaction rate. The inhibition % was calculated by using the equation: inhibition% = 100 × (slope of DMSO control – slope of the sample)/(slope of DMSO control – slope of blank control), DMSO control: DMSO with protein and RNA substrate; Blank control: DMSO with RNA substrate. The IC50 values were calculated using the concentration-response model in GraphPad Prism 9. […]

[2] = biological target: T2, phosphorylated IRE1α (p-IRE1α) (Homo sapiens, UniProt O75460); assay: FRET-based IRE1α RNase activity assay, phosphorylated IRE1α; type: biochemical; details: for inhibition at 50 µM: read-out: p-IRE1α inhibition%
T2 construct: Human IRE1α kinase and RNase domain (residues 547–977) was subcloned into pLIB plasmid; His tag (with TEV cleavage site) (N, cleaved yes); made in house; host or cells: Sf9 insect cells, baculovirus (Bac-to-Bac)
T2 sequence (O75460 547-977): as above
Description: as §1
The dual-labeled RNA substrate with a FAM at 5’ and the BHQ-1 at 3’ containing the XBP1 sequence (5′FAM-[…]-3′BHQ1) was purchased from Integrated DNA Technologies (IDT). The FRET-based IRE1α RNase activity assay was carried out in reaction buffer containing 20 mM HEPES pH 7.5, 50 mM KOAc, 1 mM MgOAc2, 1 mM DTT, 0.05% v/v TritonX-100, at a total reaction volume of 20 μL in a 384-well black plate (4514, Corning). For unphosphorylated IRE1α (IRE1α), a final concentration of 40 nM IRE1α protein and 100 nM RNA substrate was used. For phosphorylated IRE1 (p-IRE1α), a final concentration of 4 nM p-IRE1α protein and 200 nM RNA substrate was used. The indicated compound and IRE1α protein were incubated for 30 min at room temperature before the substrate was added to the reaction. The plate was then kinetically read over one hour at room temperature using a TECAN Spark plate reader. The measurement was carried out using the fluorescence top reading mode at the excitation wavelength of 485 nm and the emission wavelength of 535 nm with a 10 nm excitation and emission bandwidth. The linear part of the reaction curve was adopted and fitted with sample linear regression to obtain the slope, and the slope was adopted to reflect the reaction rate. The inhibition % was calculated by using the equation: inhibition% = 100 × (slope of DMSO control – slope of the sample)/(slope of DMSO control – slope of blank control), DMSO control: DMSO with protein and RNA substrate; Blank control: DMSO with RNA substrate. The IC50 values were calculated using the concentration-response model in GraphPad Prism 9.

[3] = FRET assay, RNase activity, mean (± SEM), read-out: IRE1α IC50
[4] = FRET assay, source data, unit from Fig. 3 / sheet Fig. 2b, read-out: IRE1a IC50, individual replicates (n1-n4)
[5] = FRET assay, RNase activity, mean (± SEM), read-out: p-IRE1α IC50
[6] = FRET assay, source data, unit from Fig. 3, read-out: p-IRE1a IC50, individual replicates (n1-n4)
[7] = FRET assay at 50 μM, mean (± SEM)
[8] = FRET assay at 50 μM, source data, 50 µM
[9] = FRET assay, RNase activity, mean (± SEM)
[10] = IRE1a, individual replicates (n1-n4), Supplementary Fig. 2b, 2c, read-out: IC50
[11] = IRE1a, mean, Supplementary Fig. 2b, 2c, read-out: IC50, mean
[12] = p-IRE1a, individual replicates (n1-n3), Supplementary Fig. 2b, 2c, read-out: IC50
[13] = p-IRE1a, mean, Supplementary Fig. 2b, 2c, read-out: IC50, mean

IC50 [1, 3]: 860 nM
IC50 [1, 4]: 1180 nM and 924 nM and 476 nM
IC50 [2, 5]: 1150 nM
IC50 [2, 6]: 1470 nM and 1150 nM and 817 nM
Compound: COc1ccc2c(c1)c(CCC(=O)O)c(C)n2C(=O)c1ccc(-c2ccccc2)cc1 [IA75]

IC50 [1, 3]: 140 nM
IC50 [1, 4]: 213 nM and 125 nM and 82.7 nM
IC50 [2, 5]: 200 nM
IC50 [2, 6]: 124 nM and 115 nM and 353 nM
Compound: COc1ccc2c(c1)c(CCC(=O)O)c(C)n2C(=O)c1ccc(F)cc1 [IA66]

inhibition at 50 µM [1, 7]: 40.3%
inhibition at 50 µM [2, 7]: 42.5%
Compound: COc1ccc2c(c1)c(CCCC(=O)O)c(C)n2C(=O)c1ccc(Cl)cc1 [cms02]
IRE1a inhibition(%), individual measurements [1, 8]: 64.1986% and 50.8974% and 61.5831% and 7.967% and 17.0403%
p-IRE1a Inhibiton%, individual measurements [2, 8]: 54.5805% and 55.2276% and 56.4075% and 61.6984% and 12.177% and 15.0468%

inhibition at 50 µM [1, 7]: < 30%
inhibition at 50 µM [2, 7]: < 30%
Compound: COc1ccc2c(c1)c(CC(=O)OCC(=O)O)c(C)n2C(=O)c1ccc(Cl)cc1 [cms03]

inhibition at 50 µM [1, 7]: < 30%
inhibition at 50 µM [2, 7]: < 30%
Compound: CCc1c(C)n(C(=O)c2ccc(Cl)cc2)c2ccc(OC)cc12 [cms01]

inhibition at 50 µM [1, 7]: < 30%
inhibition at 50 µM [2, 7]: < 30%
Compound: COc1ccc2c(c1)c(CC(=O)N1CCOCC1)c(C)n2C(=O)c1ccc(Cl)cc1 [cms11]

Continued, molecule first:

Compound: COc1ccc2c(c1)c(CCC(=O)O)c(C)n2C(=O)C12CCC(C)(C(=O)O1)C2(C)C (stereo not shown) [IA92]
IRE1α IC50 [1, 9]: IC₅₀ not reached
IC50 [1, 3]: > 20000 nM
p-IRE1α IC50 [2, 9]: IC₅₀ not reached
IC50 [2, 5]: > 20000 nM

Compound: Cc1c(CCC(=O)O)c2cc(Cl)ccc2n1C(=O)c1cccc(C#N)c1 [IA63]
IC50 [1, 10]: 101 nM and 84.1 nM and 98.1 nM
IC50 [1, 11]: 90 nM
IC50 [2, 12]: 204 nM and 404 nM and 78.9 nM
IC50 [2, 13]: 230 nM

Compound: COc1ccc2c(c1)c(CCC(=O)O)c(C)n2C(=O)c1ccccn1 [IA04]
IC50 [1, 3]: 530 nM
IC50 [1, 4]: 337 nM and 1040 nM and 203 nM
IC50 [2, 5]: 820 nM
IC50 [2, 6]: 1590 nM and 458 nM and 394 nM

Compound: COc1ccc2c(c1)c(CCC(=O)O)c(C)n2C(=O)N1CCCCC1 [IA89]
IC50 [1, 3]: 69600 nM
IC50 [1, 4]: 33400 nM and 89300 nM and 86000 nM
p-IRE1α IC50 [2, 9]: IC₅₀ not reached
IC50 [2, 5]: > 20000 nM

Compound: Cc1ccc2c(NS(=O)(=O)c3ccccc3Cl)cccc2c1Oc1ncccc1-c1ccnc(N[C@H]2CCCNC2)n1 [AMG18]
inhibition(%) ([1]; IRE1a, 5.55556 μM): 93.95% and 92.37% and 91.58% and 94.22%
inhibition(%) ([1]; IRE1a, 16.6667 μM): 92.87% and 92.05% and 91.66% and 92.11%
inhibition(%) ([1]; IRE1a, 50 μM): 89.29% and 89.80% and 92.49% and 93.01%
inhibition(%) ([2]; p-IRE1a, 5.55556 μM): 100.91% and 100.40% and 100.53% and 99.85%
inhibition(%) ([2]; p-IRE1a, 16.6667 μM): 99.21% and 99.54% and 99.79% and 99.45%
inhibition(%) ([2]; p-IRE1a, 50 μM): 99.53% and 98.55% and 99.75% and 99.47%

Compound: Cc1c(CCC(=O)O)c2cc(-c3cn[nH]c3)ccc2n1C(=O)c1ccccc1 [IA158]
IC50 [1, 3]: 700 nM
IC50 [1, 4]: 708 nM and 693 nM
IC50 [2, 5]: 2340 nM
IC50 [2, 6]: 3180 nM and 1500 nM

Compound: Cc1c(CCC(=O)O)c2cc(-c3cccc(N)c3)ccc2n1C(=O)c1ccccc1 [IA146]
IC50 [1, 3]: 1210 ± 820 nM
IC50 [1, 4]: 2150 nM and 810 nM and 672 nM
IC50 [2, 5]: 6650 nM
IC50 [2, 6]: 7280 nM and 8070 nM and 4590 nM

Compound: Cc1c(CCC(=O)O)c2ccccc2n1C(=O)c1cccc(C#N)c1 [IA41]
IC50 [1, 10]: 2320 nM and 4340 nM and 2120 nM
IC50 [1, 11]: 2930 nM
IC50 [2, 12]: 4900 nM and 768 nM
IC50 [2, 13]: 2840 nM
